SMILES strings stand for the structures. Entries after “also recorded” stand apart in the source; their conditions may differ. Some results are limits rather than exact numbers.

This note sets out measurements from paper PMC7857870, “Design and Synthesis of 4-O-Podophyllotoxin Sulfamate Derivatives as Potential Cytotoxic Agents” (Evidence-based Complementary and Alternative Medicine : eCAM, 2021).

The test system of data set [1] is human breast adenocarcinoma (MCF7). Briefly: MTT cytotoxicity assay, 72 h. The format is cell-based. The note with it: MTT 72 h, read-out: IC50 ± SD, MCF7. Here is the method: (§1) Three cancer cell lines, human breast adenocarcinoma (MCF7), human ovary adenocarcinoma (A2780), and human colon adenocarcinoma (HT29), in addition the normal human fetal lung fibroblast (MRC5), were used. All cell lines were obtained from the ATCC. The three cancer cells were subcultured in RPMI-1640 media (10% FBS), while MRC5 was maintained in Eagles minimum essential medium (EMEM, 10% FBS), all at 37°C, 5% CO2, and 100% relative humidity.
(§2) As previously reported, the cytotoxicity of the six compounds, including podophyllotoxin as reference, was evaluated by the MTT assay. The three cell lines and one normal fibroblast cells were separately cultured in 96-well (3 × 10^3/well) and incubated at 37°C overnight. Final compound concentrations are as follows: 0, 0.005, 0.050, 0.500, 5.000, and 25.000 μM (DMSO 0.1%; n = 3). Plates were incubated for 72 h, followed by addition of MTT to each well. Plates were incubated for 3 hr, supernatant was aspirated, and DMSO was added to each well. The absorbance was read on multiplate reader. The optical density of the purple formazan A550 is proportional to the number of viable cells. Compound concentration causing 50% inhibition (IC50) compared to control cell growth (100%) was determined. GraphPad Prism version 5.00 for Windows, GraphPad Software, San Diego California, USA, was used for analysis.
A general note: Tetrazolium assays rely on reduction of a dye to a coloured formazan, in cell work by metabolically active cells.

The subject of data set [2] is human colon adenocarcinoma (HT29). Briefly: MTT cytotoxicity assay, 72 h. The format is cell-based. Particulars: HT-29, MTT 72 h, read-out: IC50 ± SD, HT29. Here is the method: as §1, §2
Data set [3] relates to human ovary adenocarcinoma (A2780). Briefly: MTT cytotoxicity assay, 72 h. The format is cell-based. The note with it: MTT 72 h, read-out: IC50 ± SD, A2780. Here is the method: as §1, §2
Data set [4] deals with normal human fetal lung fibroblast (MRC5). In words: MTT cytotoxicity assay, 72 h, normal cells. The format is cell-based. The note with it: MTT 72 h, normal fibroblasts, read-out: IC50 ± SD, MRC5. The method, then:
as §1, §2

The next data set deals with MCF7 cells. Briefly: Annexin V FITC/PI apoptosis assay (flow cytometry). Particulars: 24 h treatment, 0.5-5.0 µM, dose-dependent. The format is cell-based, human. Here is the method: Annexin V FITC/PI assay was used to evaluate possible ability to induce apoptosis. MCF7 cells were cultured in 6 well plates (1 × 10^5 cells/well) overnight at 37°C. Compounds 2, 3, and 7 were used to treat cells (0, 0.5, 1.0, and 5.0 µM). After 24 h, the supernatant of treated cells was collected in tubes and kept in ice, and cells were trypsinized and incubated at 37°C before being added to the tubes. MCF7 cells were centrifuged (2000 rpm) and washed with PBS (x1), and pellets resuspended in the binding buffer (100 μL) and annexin V FITC (10 μL). Tubes were incubated at room temperature in dark for 20 min, before adding binding buffer (400 μL) and 10 μL propidium iodide (PI). Analysis was performed by flow cytometry (BC, FC500, USA). Different cell populations (early apoptotic, late apoptotic, and necrotic cells) were identified by annexin V and PI staining.
(A flow cytometer gives signals particle by particle.)

The subject of another data set is MCF7, A2780, and HT29. In words: MTT cytotoxicity assay, text summary over the three cancer cell lines and selectivity versus MRC5. Particulars: for IC50: Homo sapiens, MTT, range over three cancer cell lines, read-out: activity (IC50) against the three cell lines MCF7, A2780 and HT29; for selectivity against MCF7, A2780 and HT29 compared to MRC5 cells: cancer cells versus normal MRC5 cells. The format is cell-based, human. Here is the method:
as §1, §2

Data set [5] can be described thus: Stability observation of the prepared compound. The format is physicochemical. The note with it: excluded from the biological assay.

Consider `COc1cc(C2c3cc4c(cc3C(OS(N)(=O)=O)C3COC(=O)C23)OCO4)cc(OC)c1OC` (centres unmarked) [Compound 2, 4-O-Podophyllotoxin Sulfamate], for which the IC50 in data set [1] was 0.648 ± 0.087 µM; in data set [2], 1.34 ± 0.637 µM; in data set [3], 0.729 ± 0.363 µM; in data set [4] it was 7.51 ± 1.51 µM; in the data set on MCF7, A2780, and HT29, at most 1 µM. Besides, in the data set with MCF7 cells, the “increase of early apoptotic MCF7 cell population compared to control” value (shortened to “increase”) is reported as 1.7–2.2 fold. In addition, the “selectivity against MCF7, A2780 and HT29 compared to MRC5 cells” value (from here on “selectivity against MCF7, A2780 and HT29”) in the data set on MCF7, A2780, and HT29 is recorded as “less cytotoxic against MRC5 cells; also recorded: moderate selectivity”.

As for `COc1cc(C2c3cc4c(cc3C(OS(=O)(=O)NCc3ccccn3)C3COC(=O)C23)OCO4)cc(OC)c1OC` (centres unmarked) [Compound 3, 4-N-(2-Pyridinylmethyl)podophyllotoxin Sulfamate], the IC50 was 0.15 ± 0.06 µM in data set [1]; 0.222 ± 0.098 µM in data set [2]; 0.179 ± 0.01 µM in data set [3]; 2.03 ± 0.25 µM in data set [4]; 0.15 to 0.22 µM in the data set with MCF7, A2780, and HT29. Moreover, the “increase” value in the data set on MCF7 cells was 1.7–2.2 fold. The “selectivity against MCF7, A2780 and HT29” value in the data set with MCF7, A2780, and HT29 was 9.1–13.5 fold.

For the compound `COc1cc(C2c3cc4c(cc3C(OS(=O)(=O)NCCc3ccccn3)C3COC(=O)C23)OCO4)cc(OC)c1OC` (centres unmarked) [Compound 4, 4-N-(2-Pyridinylethyl)podophyllotoxin Sulfamate], the melting point turned out to be 225 °C. Moreover, the IC50 in data set [1] turned out to be 0.212 ± 0.01 µM. The concentration for half-maximal inhibition (IC50) in data set [2] was found to be 0.228 ± 0.075 µM. In data set [3], the concentration for half-maximal inhibition (IC50) came to 0.456 ± 0.18 µM. For the same compound, in data set [4], the 50% inhibitory concentration (IC50) was found to be 0.048 ± 0.003 µM. In addition, the “selectivity against MCF7, A2780 and HT29” value in the data set on MCF7, A2780, and HT29 was “no selectivity”.

Turning to `COc1cc(C2c3cc4c(cc3C(OS(=O)(=O)Nc3ccccn3)C3COC(=O)C23)OCO4)cc(OC)c1OC` (centres unmarked) [Compound 5, 4-N-(2-Pyridinyl)podophyllotoxin Sulfamate], the melting point is 230 °C (dec.). Also, in data set [1], the IC50 amounted to 0.184 ± 0.052 µM. Besides, the IC50 in data set [2] worked out at 1.048 ± 0.005 µM. Also, the IC50 in data set [3] worked out at 0.132 ± 0.012 µM. Also, the IC50 in data set [4] was determined as 0.047 ± 0.042 µM. Besides, the “selectivity against MCF7, A2780 and HT29” value in the data set with MCF7, A2780, and HT29 is “no selectivity”.

For `COc1cc(C2c3cc4c(cc3C(OS(=O)(=O)Nc3ccc(F)cc3)C3COC(=O)C23)OCO4)cc(OC)c1OC` (centres unmarked) [Compound 6, 4-N-(4-Flourophenyl)podophyllotoxin Sulfamate], the melting point is 220 °C. In addition, the “stability of the compound” value in data set [5] was “unstable”.

Regarding `COc1cc(C2c3cc4c(cc3C(OS(=O)(=O)Nc3ccc5cc6ccccc6cc5c3)C3COC(=O)C23)OCO4)cc(OC)c1OC` (centres unmarked) [Compound 7, 4-N-(2-Anthracenyl)podophyllotoxin Sulfamate], the IC50 in data set [1] was 2.12 ± 0.989 µM; in data set [2], 5.08 ± 0.673 µM; in data set [3], 3.65 ± 1.94 µM; in data set [4], 9.08 ± 1.01 µM; in the data set on MCF7, A2780, and HT29, 2.12 to 5.08 µM. The “increase” value in the data set on MCF7 cells is recorded as 1.7–2.2 fold.

For the compound `COc1cc([C@@H]2c3cc4c(cc3[C@H](O)[C@H]3COC(=O)[C@H]23)OCO4)cc(OC)c1OC` [Podophyllotoxin], the IC50 in data set [1] was 0.004 ± 0.001 µM; in data set [2], 0.002 ± 0.001 µM; in data set [3] it was 0.007 ± 0.001 µM; in data set [4] it was 0.043 ± 0.06 µM.

As a reminder, the IC50 is the point on the concentration scale where inhibition reaches its midpoint. The melting point is the temperature of the solid-liquid transition.
